Reference: patent publication US20200038355A1, “ANTIOXIDANTS FOR USE IN OPHTHALMIC SURGERY” (Case Western Reserve University, priority 2017, published 2020)
Entries after “also recorded” stand apart in the source; their conditions may differ. Counter-ions that a name gives are not always drawn.

What was measured:
Type in all cases: cell-based
HLE-B3 cells = experiment: EMT marker / Wnt-β-catenin immunoblot in human lens epithelial cell line HLE-B3; conditions: for type I collagen expression / vimentin expression: 24 h challenge, 25 μM DMF or both
Protocol: (§1) Cell Culture—Human lens epithelial cells (HLE-B3) were grown in DMEM medium with 10% fetal bovine serum (FBS), 2 mM glutamine and 50 unit/ml penicillin streptomycin (ThermoFisher, Waltham, Mass.) at 37° C. in a humidified 5% CO2 incubator. For primary porcine lens epithelial cell culture, pig eyes were collected at a local slaughterhouse within two hours of postmortem time, placed on ice and transported to the lab (about 1 hr) for immediate processing. First, the isolated lens was incubated with 2 ml of 0.25% trypsin at 37° C. for 2 min to remove any attached non-lens cells. Then, after a brief rinse with HBSS, the lens capsule was isolated and rinsed three times with HBSS before incubation with 2 ml of 0.5% trypsin for 5 min. 5 ml of complete DMEM medium was added and tissue was disrupted by pipetting up and down 10-15 times with a pipette fitted with a 1000 μl tip. The tissue homogenate was then passed through a 100 μm cell strainer. The cells were collected by low speed centrifugation at 150×g and placed in a 35 mm laminin-coated tissue culture dish with DMEM medium supplied with 10% FBS, 2 mM glutamine and 50 unit/ml penicillin streptomycin (ThernoFisher). The cells were cultured at 37° C. in a humidified incubator with 5% CO2.
(§2) Cells were placed 24 hr before the treatment and fresh medium was replaced immediately before the treatment. The indicated concentrations of BSO, DMF, NAC, GSH-EE or TGFβ2 were added to fresh medium and incubated at various time intervals as indicated. After treatment time, the cells were harvested after three washes with ice-cold PBS and subjected to immunoblot or other assays as described below. For whole lens culture, the serum-free medium with or without BSO, NAC, GSH-EE or TGFβ2 was incubated immediately after isolation for 48 hr and the whole lens or lens capsule was collected for further analysis. For lens explant culture, 48 hr after explant culture, various stimulates were used in fresh serum-free medium for an additional 48 hr, and the explant was fixed with 10% formaldehyde for 10 min before immunofluorescence stain, as described below.
The cells, whole lens, lens capsule, and lens fibers were collected and lysed in lysis buffer containing 20 mM Tris pH 7.5, 1 mM EDTA, 1 mM EGTA, 150 mM NaCl, 1% Triton X-100, 2.5 mM sodium pyrophosphate, 1 mM bα-Glycerolphosphate, 1 mM Na3VO4, 1 mg/ml Leupeptin, 1 mM PMSF on ice for 10 min. The protein concentration from the supernatant was determined by protein BCA assay (ThermoFisher). The protein extract was further processed for immunoblot analysis and probed for αSMA, collagen I, vimentin, phosphorylated Smad2, phosphorylated Smad3, phosphorylated GSK-3β and (β-catenin. All data were normalized to the level of GAPDH.

[1] = system: mouse lens ex vivo culture; experiment: Mouse whole lens ex vivo culture, lens capsule immunoblot
Protocol: The isolated intact lens was rinsed three times with HBSS and then cultured in 12-well-plates with serum-free Medium 199 (ThermoFisher) with 50 unit/ml penicillin streptomycin at 37° C. in 5% CO2 incubator, as described above. The lens explant was cultured following the same procedure as described by a previous report. […] et al., Exp Eye Res 71, 591-597 (2000). In brief, the mouse lens was placed in an anterior-toposterior orientation with the anterior attached to the culture dish. The lens posterior capsule was torn/cut by the tip of extra-fine forceps and then peeled towards anterior capsule and pinned on the plastic culture dish. The lens fiber mass was removed thereafter. The explant was cultured in serum-free MEM medium supplied with 50 unit/ml penicillin streptomycin at 37° C. in 5% CO2 incubator as described above. Only healthy growing explants were used for the described study and any unhealthy looking explants, such as folded explants or those with cell detachment, were discarded. Cells were placed 24 hr before the treatment and fresh medium was replaced immediately before the treatment. The indicated concentrations of BSO, DMF, NAC, GSH-EE or TGFβ2 were added to fresh medium and incubated at various time intervals as indicated. After treatment time, the cells were harvested after three washes with ice-cold PBS and subjected to immunoblot or other assays as described below. For whole lens culture, the serum-free medium with or without BSO, NAC, GSH-EE or TGFβ2 was incubated immediately after isolation for 48 hr and the whole lens or lens capsule was collected for further analysis. For lens explant culture, 48 hr after explant culture, various stimulates were used in fresh serum-free medium for an additional 48 hr, and the explant was fixed with 10% formaldehyde for 10 min before immunofluorescence stain, as described below. The cells, whole lens, lens capsule, and lens fibers were collected and lysed in lysis buffer containing 20 mM Tris pH 7.5, 1 mM EDTA, 1 mM EGTA, 150 mM NaCl, 1% Triton X-100, 2.5 mM sodium pyrophosphate, 1 mM bα-Glycerolphosphate, 1 mM Na3VO4, 1 mg/ml Leupeptin, 1 mM PMSF on ice for 10 min. The protein concentration from the supernatant was determined by protein BCA assay (ThermoFisher). The protein extract was further processed for immunoblot analysis and probed for αSMA, collagen I, vimentin, phosphorylated Smad2, phosphorylated Smad3, phosphorylated GSK-3β and (β-catenin. All data were normalized to the level of GAPDH.

[2] = system: primary porcine lens epithelial cells; experiment: αSMA expression in primary cultured porcine lens epithelial cells (pLEC)
Protocol: as §1
Cells were placed 24 hr before the treatment and fresh medium was replaced immediately before the treatment. The indicated concentrations of BSO, DMF, NAC, GSH-EE or TGFβ2 were added to fresh medium and incubated at various time intervals as indicated. After treatment time, the cells were harvested after three washes with ice-cold PBS and subjected to immunoblot or other assays as described below. […]
The cells, whole lens, lens capsule, and lens fibers were collected and lysed in lysis buffer containing 20 mM Tris pH 7.5, 1 mM EDTA, 1 mM EGTA, 150 mM NaCl, 1% Triton X-100, 2.5 mM sodium pyrophosphate, 1 mM bα-Glycerolphosphate, 1 mM Na3VO4, 1 mg/ml Leupeptin, 1 mM PMSF on ice for 10 min. The protein concentration from the supernatant was determined by protein BCA assay (ThermoFisher). […]

lens explant = experiment: Mouse lens explant culture (ex vivo PCO mimetic model), αSMA immunofluorescence; conditions: 1 ng/ml TGFβ2, 48 hr stimulation
Protocol: The isolated intact lens was rinsed three times with HBSS and then cultured in 12-well-plates with serum-free Medium 199 (ThermoFisher) with 50 unit/ml penicillin streptomycin at 37° C. in 5% CO2 incubator, as described above. The lens explant was cultured following the same procedure as described by a previous report. Tamiya et al., Exp Eye Res 71, 591-597 (2000). In brief, the mouse lens was placed in an anterior-toposterior orientation with the anterior attached to the culture dish. The lens posterior capsule was torn/cut by the tip of extra-fine forceps and then peeled towards anterior capsule and pinned on the plastic culture dish. The lens fiber mass was removed thereafter. The explant was cultured in serum-free MEM medium supplied with 50 unit/ml penicillin streptomycin at 37° C. in 5% CO2 incubator as described above. Only healthy growing explants were used for the described study and any unhealthy looking explants, such as folded explants or those with cell detachment, were discarded.
as §2, with “For lens explant culture, 48 hr after explant culture, various stimulates were used in fresh serum-free medium for an additional 48 hr, and the explant was fixed with 10% formaldehyde for 10 min before immunofluorescence stain, as described below.” left out
Confocal microscope—All confocal images were collected by a Leica SP8 gSTED confocal microscope equipped with two 3 Hyd SP GaAsP detectors and the AOBS system lasers include a 405 nm, Argon (458, 476, 488, 496, 514 nm), a tunable white light (470 to 670 nm), and a 592 nm STED depletion laser. For proper comparison, each channel of fluorescence was adjusted to the highest sensitivity/intensity but without over saturation from samples with the strongest signal. […]

[3] = HLE-B3 cells, XAV939 co-incubated with 500 μM BSO, 24 hr
[4] = lens capsule after ex vivo lens culture, BSO plus XAV939, 48 hr
[5] = HLE-B3 cells, 24 hr treatment with increasing concentration of BSO or DMF
[6] = HLE-B3 cells, 24 hr, 500 μM BSO or 25 μM DMF
[7] = mouse lens ex vivo culture, 500 μM BSO, 48 hrs

With Oc1nc(-c2ccc(C(F)(F)F)cc2)nc2c1CSCC2 [XAV939] the “αSMA production after BSO challenge” value (HLE-B3 cells; [3]) was “block”, the “β-catenin production after BSO challenge” value (HLE-B3 cells; [3]) was “block” and the “αSMA production after BSO challenge” value [1, 4] was “block”. For the same molecule, the “β-catenin production after BSO challenge” value [1, 4] was “block”.

CCCCS(=N)(=O)CCC(N)C(=O)O (stereo not shown) [BSO, buthionine sulfoximine] was tested, and the “phosphorylation status of Smad2 and Smad3” value (HLE-B3 cells; HLE-B3 cells with or without 500 μM BSO, 24 hr) was “no remarkable changes”, the “αSMA production, combination with TGFβ2” value (HLE-B3 cells; HLE-B3 cells, 500 μM BSO combined with 1 ng/ml TGFβ2, 24 hr) was “synergistic effect” and the “phosphorylation at serine 9 of GSK-3β” value (HLE-B3 cells; HLE-B3 cells, 500 μM BSO, 24 hr) was “significantly elevated; also recorded: significantly increased”. For the same molecule, the “type I collagen expression” value (HLE-B3 cells; HLE-B3 cells, 500 μM BSO) was “Significantly increased; also recorded: significantly elevated”, the vimentin expression (HLE-B3 cells; HLE-B3 cells, 500 μM BSO) was “Significantly increased; also recorded: significantly elevated” and the αSMA expression (HLE-B3 cells; [5]) was “increased; also recorded: significantly upregulated”. For the same molecule, the αSMA expression (HLE-B3 cells; [6]) was “Significantly increased”, the αSMA expression ([2]; pLECs, increased concentration of BSO, 24 hr) was “increases” and the “concentration required to stimulate a similar fold of αSMA production” value ([2]; primary porcine lens epithelial cells, 24 hr, 100 times lower than in HLE-B3) was 5 µM. For the same molecule, the cell death ([2]; primary porcine lens epithelial cells, higher dosages of BSO (>100 μM)) was “massive cell death and detachment”, the “phosphorylation at serine 9 of GSK-3β” value ([1]; lens capsules after whole lens ex vivo culture with BSO, 48 hr) was “significantly increased” and the “increase of vimentin expression compared to medium alone” value [1, 7] was ~2 fold. The “increase of αSMA expression compared to medium alone” value [1, 7] was “over 3.5 fold”.

In the case of COC(=O)/C=C/C(=O)OC [DMF, dimethyl fumarate], the “type I collagen expression” value (HLE-B3 cells; HLE-B3 cells, 500 μM BSO) is reported as “Significantly increased; also recorded: significantly elevated”, the vimentin expression (HLE-B3 cells; HLE-B3 cells, 500 μM BSO) is reported as “Significantly increased; also recorded: significantly elevated” and the αSMA expression (HLE-B3 cells; [5]) is reported as “increased; also recorded: significantly upregulated”. The αSMA expression (HLE-B3 cells; [6]) was “Significantly increased”.

B1: TGFβ2: Human TGFβ2, profibrogenic cytokine purchased from Sigma-Aldrich (protein, UniProt P61812 303-414, looked up)
Transforming growth factor …: ALDAAYCFRNVQDNCCLRPLYIDFKRDLGWKWIHEPKGYNANFCAGACPYLWSSDTQHSRVLSLYNTINPEASASPCCVSQDLEPLTILYYIGKTPKIEQLSNMIVKSCKCS
B1 was tested, and the “αSMA expression in lens explant compared to medium alone” value (lens explant) was “activated; also recorded: profound elevation”.
